test system: IL-2 secretion by Jurkat T cells; experiment: Inhibition of IL-2 secretion; format: cell-based; conditions: Homo sapiens; Jurkat T cells stimulated with PHA, 20 to 24 hours, IL-2 by ELISA
Procedure: The CRAC channel modulatory activity of the compounds were thus evaluated by measuring the secretion of IL-2 by antigen stimulated T-cells in vitro. Alternatively, such activity can also be evaluated by assay methods known to one skilled in the art.
Inhibition of IL-2 secretion: Jurkat T cells were seeded at a density of 0.5 to 1 million cells per well in RPMI medium. Test compounds from this invention were added to the cells at different concentrations. This was followed by the addition of PHA, a T cell mitogen after 10 minutes. The cells were then incubated for 20 to 24 hours in a CO2 incubator at 37° C. After incubation with the compounds, cells were centrifuged, the supernatant was collected and processed for ELISA to quantitate the amount of IL-2 secreted. A commercial ELISA kit (R&D Systems, Inc. Minneapolis, Minn., USA) was used to estimate the IL-2 concentrations. Amount of IL-2 secreted by cells stimulated with PHA was considered as a 100% maximal signal and the decrease in amount of IL-2 secreted by cells treated with the test compounds was expressed as percent inhibition of the maximal signal. The dose response data was analyzed using 4-parametric sigmoidal dose response (variable slope) curve-fit.

IC50 | Compound
25 to 50 nM | Cn1c(=O)oc2c(C3CC3)c(-c3ccc(NCc4c(F)cccc4F)cc3)ccc21 [Example 100, 7-Cyclopropyl-6-(4-((2,6-difluorobenzyl)amino)phenyl)-3-methylbenzo [d]oxazol-2(3H)-one]
< 25 nM | Cn1c(=O)oc2c(C3CC3)c(-c3ccc(NC(=O)c4c(F)cccc4Cl)cc3)ccc21 [Example 101, 2-Chloro-N-(4-(7-cyclopropyl-3-methyl-2-oxo-2,3-dihydrobenzo[d]oxazol-6-yl)phenyl)-6-fluorobenzamide]
50 to 100 nM | Cn1c(=O)oc2c(C3CC3)c(-c3ccc(NC(=O)c4ccccc4Cl)cc3)ccc21 [Example 103, 2-Chloro-N-(4-(7-cyclopropyl-3-methyl-2-oxo-2,3-dihydrobenzo[d]oxazol-6-yl)phenyl)benzamide]
< 25 nM | CN1C(=O)COc2c1ccc(-c1ccc(NC(=O)c3c(F)cccc3F)cc1)c2C1CC1 [Example 107, N-(4-(8-Cyclopropyl-4-methyl-3-oxo-3,4-dihydro-2H-benzo[b][1,4]oxazin-7-yl)phenyl)-2,6-difluorobenzamide]
50 to 100 nM | CN1C(=O)COc2c1ccc(-c1cnc(NC(=O)c3c(F)cccc3F)cn1)c2C1CC1 [Example 109, N-(5-(8-Cyclopropyl-4-methyl-3-oxo-3,4-dihydro-2H-benzo[b][1,4]oxazin-7-yl)pyrazin-2-yl)-2,6-difluorobenzamide]
25 to 50 nM | CN1C(=O)COc2c1ncc(-c1ccc(NC(=O)c3c(F)cccc3F)cc1)c2C1CC1 [Example 112, N-(4-(8-Cyclopropyl-4-methyl-3-oxo-3,4-dihydro-2H-pyrido[3,2-b][1,4]oxazin-7-yl)phenyl)-2,6-difluorobenzamide]
< 25 nM | CN1C(=O)COc2cc(-c3ccc(NC(=O)c4c(F)cccc4F)cc3)c(C3CC3)cc21 [Example 113, N-(4-(6-Cyclopropyl-4-methyl-3-oxo-3,4-dihydro-2H-benzo[b][1,4]oxazin-7-yl)phenyl)-2,6-difluorobenzamide]
< 25 nM | CN1C(=O)COc2cc(-c3ccc(NCc4c(F)cccc4F)cc3)c(C3CC3)cc21 [Example 114, 6-Cyclopropyl-7-(4-((2,6-difluorobenzyl)amino)phenyl)-4-methyl-2H-benzo[b][1,4]oxazin-3(4H)-one]
< 25 nM | CN1C(=O)COc2cc(-c3ccc(NC(=O)c4c(F)cccc4F)nc3)c(C3CC3)cc21 [Example 115, N-(5-(6-Cyclopropyl-4-methyl-3-oxo-3,4-dihydro-2H-benzo[b][1,4]oxazin-7-yl)pyridin-2-yl)-2,6-difluorobenzamide]
< 25 nM | CN1C(=O)COc2cc(-c3cnc(NC(=O)c4c(F)cccc4F)cn3)c(C3CC3)cc21 [Example 116, N-(5-(6-Cyclopropyl-4-methyl-3-oxo-3,4-dihydro-2H-benzo[b][1,4]oxazin-7-yl)pyrazin-2-yl)-2,6-difluorobenzamide]
25 to 50 nM | CN1C(=O)COc2cc(-c3cnc(NC(=O)c4c(F)cccc4Cl)cn3)c(C3CC3)cc21 [Example 117, 2-Chloro-N-(5-(6-cyclopropyl-4-methyl-3-oxo-3,4-dihydro-2H-benzo[b][1,4]oxazin-7-yl)pyrazin-2-yl)-6-fluorobenzamide]
100 to 500 nM | CN1C(=O)COc2cc(-c3ccc(C(=O)Nc4c(F)cncc4F)cc3)c(C3CC3)cc21 [Example 119, 4-(6-Cyclopropyl-4-methyl-3-oxo-3,4-dihydro-2H-benzo[b][1,4]oxazin-7-yl)-N-(3,5-difluoropyridin-4-yl)benzamide]
< 25 nM | CCc1cc2c(cc1-c1cnc(NC(=O)c3c(F)cccc3F)cn1)OCC(=O)N2C [Example 121, N-(5-(6-Ethyl-4-methyl-3-oxo-3,4-dihydro-2H-benzo[b][1,4]oxazin-7-yl)pyrazin-2-yl)-2,6-difluorobenzamide]
< 25 nM | CCc1cc2c(cc1-c1ccc(NC(=O)c3c(F)cccc3F)nc1)OCC(=O)N2C [Example 122, N-(5-(6-Ethyl-4-methyl-3-oxo-3,4-dihydro-2H-benzo[b][1,4]oxazin-7-yl)pyridin-2-yl)-2,6-difluorobenzamide]
< 25 nM | Cc1cc2c(cc1-c1ccc(NC(=O)c3c(F)cccc3F)cc1)OCC(=O)N2C [Example 123, N-(4-(4,6-Dimethyl-3-oxo-3,4-dihydro-2H-benzo[b][1,4]oxazin-7-yl)phenyl)-2,6-difluorobenzamide]
100 to 500 nM | Cc1cc2c(cc1-c1cnc(NC(=O)c3c(F)cccc3F)cn1)OCC(=O)N2C [Example 126, N-(5-(4,6-Dimethyl-3-oxo-3,4-dihydro-2H-benzo[b][1,4]oxazin-7-yl)pyrazin-2-yl)-2,6-difluorobenzamide]
50 to 100 nM | Cc1cc2c(cc1-c1ccc(NCc3c(F)cccc3F)cc1)OCC(=O)N2C [Example 127, 7-(4-((2,6-Difluorobenzyl)amino)phenyl)-4,6-dimethyl-2H-benzo [b][1,4]oxazin-3(4H)-one]
50 to 100 nM | CN1C(=O)COc2cc(C3CC3)c(-c3ccc(NC(=O)c4c(F)cccc4F)cc3)cc21 [Example 131, N-(4-(7-Cyclopropyl-4-methyl-3-oxo-3,4-dihydro-2H-benzo[b][1,4]oxazin-6-yl)phenyl)-2,6-difluorobenzamide]
25 to 50 nM | CCc1cc2c(cc1-c1ccc(NC(=O)c3c(F)cccc3F)cc1)N(C)C(=O)CO2 [Example 132, N-(4-(7-Ethyl-4-methyl-3-oxo-3,4-dihydro-2H-benzo[b][1,4]oxazin-6-yl)phenyl)-2,6-difluorobenzamide]
100 to 500 nM | CCc1cc2c(cc1-c1cnc(NC(=O)c3c(F)cccc3F)cn1)N(C)C(=O)CO2 [Example 133, N-(5-(7-Ethyl-4-methyl-3-oxo-3,4-dihydro-2H-benzo[b][1,4]oxazin-6-yl)pyrazin-2-yl)-2,6-difluorobenzamide]
100 to 500 nM | CCc1cc2c(cc1-c1ccc(C(=O)Nc3c(F)cncc3F)cc1)N(C)C(=O)CO2 [Example 135, N-(3,5-Difluoropyridin-4-yl)-4-(7-ethyl-4-methyl-3-oxo-3,4-dihydro-2H-benzo[b][1,4]oxazin-6-yl)benzamide]
< 25 nM | Cc1cc2oc(=O)n(C)c2cc1-c1ccc(C(=O)Nc2c(F)cccc2F)s1 [Example 140, N-(2,6-Difluorophenyl)-5-(3,6-dimethyl-2-oxo-2,3-dihydrobenzo[d]oxazol-5-yl)thiophene-2-carboxamide]

— US9725463B2, “Substituted heterocyclic compounds as CRAC modulators” (LUPIN LIMITED, priority 2013, dated 2017)
